We go through three compounds from patent publication US4684742A, “Process for the production of 2-(2-halogenoethylamino)-2-oxo-3-(2-halogenoethyl)-1.3.2.-oxazaphosphori nanes” (Polska Akademia Nauk-Centrum Baden Molekularnych i …, priority 1984, dated 1987).

For one series, the system named is L1210. The series can be described thus: Antileukemic activity in L1210 leukemic CD2F1 female mice (increase in life span). Format: in vivo. The conditions noted are these: for ED50: Mus musculus, L1210 leukemic CD2F1 female mice, estimated by regression analysis, read-out: ED50 (dose producing 50% increase in life span of treated mice over control); for advantage over parent ifosfamide: racemic or enantiomeric compounds, versus ifosfamide, conclusion from Table 1. The procedure: (§1) Antileukemic activity against L1210, toxicity and therapeutic
Antileukemic activity was evaluated in L1210 leukemic CD2F1 female
mice ED50 doses producing the 50% increase in life span of treated
mice over control were estimated from experimental data by regression
(§2) anlysis. Toxicity (LD50) were determined in healthy CD2F1 femal

Series [1] is described as follows: Toxicity (LD50) in healthy CD2F1 female mice, 14 days observation. The conditions noted are these: mouse, in vivo; for selectivity ratio: TI from LD50 (healthy CD2F1 mice) and ED50 (L1210 leukemic CD2F1 mice), read-out: Therapeutic index; for LD50 at 336 h: healthy CD2F1 female mice, 14 days observation period. How it is done:
as §1, §2
mice during 14 days observation period. TI = LD50

For `O=P1(NCCCl)OCCCN1CCBr` (centres unmarked) [X=Cl, Y=Br, 2-(2-Chloroethylamino)-2-oxo-3-(2-bromoethyl)-1.3.2-oxazaphosphorinane], in the series on L1210, the ED50 was 44 mg/kg and the “advantage over parent ifosfamide” value is “more advantageous than parent ifosfamide”. Also, in series [1], the selectivity ratio was determined as 11.6 and the 50% lethal dose (LD50) at 336 h is 512 mg/kg.

In the case of `O=P1(NCCCl)OCCCN1CCCl` (centres unmarked) [X=Cl, Y=Cl, 2-(2-chloroethylamino)-2-oxo-3-(2-chloroethyl)-1.3.2-oxazaphosphorinane, reference compound], the ED50 in the series on L1210 was 103 mg/kg. For the same compound, in series [1], the selectivity ratio is 6.6 and the LD50 at 336 h was determined as 680 mg/kg.

Turning to `O=P1(NCCBr)OCCCN1CCBr` (centres unmarked) [X=Br, Y=Br, 2-(2-Bromoethylamino)-2-oxo-3-(2-bromoethyl)-1.3.2-oxazaphosphorinane], in the series on L1210, the ED50 is 43 mg/kg and the “advantage over parent ifosfamide” value is “more advantageous than parent ifosfamide”. In series [1], the selectivity ratio came to 10.7 and the LD50 at 336 h was 459 mg/kg.

For orientation: ED50 means the midpoint of the dose-response relation. The term LD50 denotes the dose at which mortality reaches 50%. High values mean lower toxicity, low ones greater toxicity.
